Experimental findings from the pKa sets of Baltruschat and Czodrowski (2020) are described below.

Structures are written as SMILES.

For the molecule `COC(=O)C(N)Cc1c[nH]cn1` (configuration not stated), where the note is “basic group”, the pKa stood at 7.35.
On to `O=CC(c1ccccc1)c1ccccc1`, for which the pKa is 9.39 (acidic group) and 9.42 (basic group).
`Cc1csc(-c2ccc(NS(=O)(=O)c3ccc(N)cc3)cc2)n1` had a pKa (acidic group) of 8.5.
Where the note is “basic group”, `C/N=c1/sc2c(n1C)CCCC2` registered a pKa of 10.
On to `COc1cc(S(C)=O)ccc1-c1nc2ccnnc2[nH]1` (configuration not stated), for which the pKa is, setting by setting: (acidic group) 8.7; (basic group) 3.63.
`Cc1ccc(O)c2ncccc12`: the pKa (acidic group) was found to be 9.93 and the pKa (basic group) was 5.29.
As for `NCCC(=O)Oc1ccc([N+](=O)[O-])cc1`, the pKa (basic group) stood at 9.17.
Still for that read-out and setting: the result for `CC(Br)(CN)[N+](=O)[O-]` (configuration not stated) reads 6.15.
`COc1cccc(Nc2ccccc2)c1`: the pKa (basic group) amounted to 0.37.
`O=C([O-])C[NH+](CCNS(=O)(=O)c1ccc(CCBr)cc1)CC(=O)[O-]` came in with a pKa (acidic group) of 7.75.
`CCOC(=O)C[C@H](N)c1ccccc1` gave a pKa (basic group) of 8.32.
Turning to `Nc1cc2ccccc2nn1`, the pKa (basic group) came out at 3.66.
`Cc1ccc2c(c1)NCCN2` came in with a pKa (basic group) of 4.97.
`C#CC(C)(C)N(CC)C(C)(C)C` registered a pKa (basic group) of 9.6.
In the case of `Sc1ccc2ccccc2[nH+]1`, the pKa (acidic group) was -1.44.
The molecule `CCN(CC)c1ccc(C)cc1` gave a pKa (basic group) of 7.18.
Regarding `[NH3+]C(Cc1c[nH]c(=S)[nH]1)C(=O)O` (configuration not stated), the pKa (acidic group) came to 1.84.
In turn, `O=C(O)C[C@]1(O)C[C@H]2CC[C@@H]1C2` gave a pKa (acidic group) of 4.57.
For the setting “basic group”, `Cn1nncc1Nc1ccccc1` displayed a pKa of 1.73.
For the setting “acidic group”, `O=c1ccccc(O)c1O` had a pKa of 6.72.
For `Oc1ccc2[nH]ncc2c1`, the pKa (acidic group) stood at 10.1.
In turn, `CC(C)CNC(C)C` had a pKa (basic group) of 10.6.
In turn, `CCCCCCP(=O)(CCCCCC)CCCCCC` gave a pKa (acidic group) of 12.8.
Consider `COc1ccc(C(=S)Nc2ccc(C)cc2)cc1`, for which the pKa (acidic group) is 11.8.
In turn, `CN(C)CCBr` came in with a pKa (basic group) of 7.55.
Still for that read-out and setting: under `Cc1ccc(N)cc1[N+](=O)[O-]` stands 3; under `COc1ccc(-c2cnc(-c3ccc(OC)cc3)o2)cc1`, 1.41.
On to `C[n+]1ccncc1O`, for which the pKa (acidic group) is -0.04.
`S=C(Nc1ccc(Br)cc1)c1ccccc1` registered a pKa (acidic group) of 10.4.
For `CCC(=O)c1cc(C(=O)C(C)(C)C)n[nH]1`, the pKa (acidic group) stood at 9.7.
In the case of `CCCn1cncn1`, the pKa (basic group) turned out to be 2.36.
With `O=C1C=C(S(=O)(=O)[O-])/C(=N/O)c2[nH]ncc21`, the pKa (acidic group) was determined as 7.15.
Take `CNc1ccc(C)cc1`: for the setting “basic group”, the pKa was determined as 5.36.
With `CC(=O)c1cccc(=O)c(O)c1`, the pKa (acidic group) stood at 6.16.
As for `CC(=O)n1ccnc1`, the pKa (basic group) was 3.6.
On the same count and under the same terms, under `CCC(O)CN(CC)CC(O)CC` (configuration not stated) stands 9.2; under `Cn1cncc(-c2ccccc2)c1=O`, 1.5.
`O=[N+]([O-])c1ccc(O)c(O)c1` displayed a pKa (acidic group) of 6.74.
Molecule `O=S1(=O)N=C[N-]c2nc[nH]c21` returned a pKa (acidic group) of 11.
Under “acidic group”, `COc1ccc(/C=C/C(=O)O)cc1` displayed a pKa of 4.6.
With `Cc1cccc(C)c1NN=C(C#N)C#N`, the pKa (acidic group) is 6.6 and the pKa (basic group) is -0.82.
Molecule `Cc1cc(C)c(C(C(=O)O)c2ccccc2)c(C)c1` (configuration not stated) returned a pKa (acidic group) of 4.
The molecule `Sc1cccc2ncccc12` displayed a pKa (acidic group) of 6.48.
For `CNCCCNC`, the pKa (basic group) amounted to 10.7.
In the case of `NCc1cccc(S(N)(=O)=O)c1`, the pKa turned out to be 10.1 (acidic group) and 8.55 (basic group).
On to `O=[N+]([O-])c1ccc(-c2nnn[nH]2)cc1`, for which the pKa (acidic group) is 3.08.
`Cc1cc([N+](=O)[O-])ccc1N`: the pKa (basic group) was 1.97.
`CN(C)Cc1c(C(C)(C)C)cccc1C(C)(C)C` gave a pKa (basic group) of 9.2.
Take `Cn1cnc2[nH]c(=O)[nH]c(=O)c21`: the pKa runs as follows: (acidic group) 8.45; (basic group) 0.87.
Under “acidic group”, `O=Nc1ccc(O)cc1` registered a pKa of 6.2.
Take `CN(C)c1cc[n+](O)cc1`: the pKa (acidic group) turned out to be 3.9 and the pKa (basic group) was -7.58.
As for `CCN(CC)CC(=O)Nc1ccccc1`, the pKa (basic group) turned out to be 8.
With `C/C(=N\O)C(=O)[N-]O`, the pKa (acidic group) came out at 11.
For `Cn1cncc1C[C@H](NC(=O)CCN)C(=O)[O-]`, the pKa (basic group) was determined as 9.53.
For the molecule `CNC(=O)CS(=O)(=O)NC(N)=O`, the pKa (acidic group) stood at 4.89.
As for `O=C([O-])CNC(=O)c1ccccc1O`, under “acidic group”, the pKa was 8.16.
`CCOCCNc1ccc(C)cc1` came in with a pKa (basic group) of 4.6.
As for `O=C(O)c1cscn1`, the pKa worked out at 3.64 (acidic group) and 2.9 (basic group).
For the setting “acidic group”, `O=C([O-])[C@@H](P)CC[C@H](P)C(=O)O` displayed a pKa of 4.41.
As for `Cc1c(Cn2cc[nH+]c2)oc2ccc(C(=O)O)cc12`, the pKa (acidic group) turned out to be 3.91.
`CC[NH+](C)CCOCCN(C)C` showed a pKa (basic group) of 7.96.
The same measure, in the same setting: under `C1CCN(CC[NH+]2CCCC2)C1` stands 6.3; under `CCN(C)CCCNC(=O)/C=N/[O-]`, 9.97.
With `Oc1cccn[nH+]1`, the pKa (acidic group) is -1.8.
`Oc1ccc(NCc2ccccc2)cc1` gave a pKa (basic group) of 5.17.
Molecule `CC(C)CN[C@H](c1ccccc1)[C@H](O)c1ccccc1` had a pKa (basic group) of 11.3.
Still for that read-out and setting: the result for `N[C@@H](C(=O)[O-])[C@H](O)C(=O)[O-]` reads 9; that for `[S-]CCNCc1ccccc1`, 10.3.
Turning to `O=S(O)CCCCc1ccccc1`, the pKa (acidic group) came to 2.23.
As to `NC(=O)c1cc(-c2ccccc2)nnc1NCC[NH+]1CCOCC1`, the pKa (basic group) was 2.5.
Take `C[C@H](CCCNCc1ccccc1)[C@H]1CC[C@H]2[C@@H]3[C@@H](O)C[C@@H]4C[C@H](O)CC[C@]4(C)[C@H]3CC[C@]12C`: where the note is “basic group”, the pKa turned out to be 9.05.
On to `Nc1ccc(S(=O)(=O)Nc2ccc[nH+]c2)cc1`, for which the pKa (basic group) amounted to 1.59.
As to `CN(C)CCC(=O)[O-]`, the pKa (basic group) was 9.85.
For the molecule `CCN(CC)Cc1cc([N+](=O)[O-])ccc1[O-]`, the pKa (basic group) was 11.
In the case of `c1cncc(-c2nc3ccccc3[nH]2)c1`, the pKa runs as follows: (acidic group) 11.2; (basic group) 4.53.
`CC(=O)c1ccc(C(=O)O)cc1` had a pKa (acidic group) of 3.72.
With `CN(C)CCSCCN(C)C`, for the setting “basic group”, the pKa amounted to 9.1.
The same measure, in the same setting: the result for `CSS/C(CCO)=C(/C)N(C=O)Cc1cnc(C)nc1N` reads 5.59.
Molecule `CCOC(=O)/C(=N\O)C(C)=O` gave a pKa (acidic group) of 7.2.
Molecule `CCC(C(C)=O)C(C)=O` yielded a pKa (acidic group) of 11.3.
Molecule `COc1ccccc1N` registered a pKa (basic group) of 4.51.
As for `CN1C[C@H](C(=O)[O-])C[C@@]2(O)c3cccc4[nH]cc(c34)C[C@@H]12`, where the note is “basic group”, the pKa was 8.33.
For the molecule `CN(C)Cc1cc(Br)ccc1[O-]`, for the setting “basic group”, the pKa was 10.7.
For the molecule `CCNC(=O)CS`, under “acidic group”, the pKa stood at 8.14.
On the same count and under the same terms, under `Cc1ccc(O)c(C(=O)O)c1` stands 3.01.
For `COc1ccc2c(c1O)-c1c3c(cc4c1[C@H](C2)N(C)CC4)OCO3`, under “acidic group”, the pKa turned out to be 10.1.
Under “basic group”, `Cc1cn2nc(-c3ccccc3)cc(C)c2n1` yielded a pKa of 5.3.
As to `C[NH+](C)CCCCN1C=Nc2cccc3cccc1c23`, the pKa (basic group) is 5.3.
`O=C1C=C(S(=O)(=O)[O-])c2cn[nH]c2/C1=N\O` showed a pKa (acidic group) of 5.85.
In the case of `Nc1cccc(-c2nc3ccccc3s2)c1`, for the setting “basic group”, the pKa came to 3.4.
As to `O=C([O-])CC(c1ncc[nH]1)c1ncc[nH]1`, the pKa (basic group) worked out at 6.9.
Turning to `O=CC1c2ccccc2C(=O)c2ccccc21`, the pKa (acidic group) was determined as 6.
In the case of `N=C(N)N(c1ccccc1)c1ccccc1`, the pKa (basic group) amounted to 10.4.
`Oc1cccc(Cl)c1Cl` registered a pKa (acidic group) of 7.71.
Turning to `C=CC(C)(C)N(C)C(C)(C)C`, where the note is “basic group”, the pKa was 11.3.
In turn, `CCS(=O)(=O)c1cc(OC)c(OC)c(C(=O)N[C@@H]2C[C@H]3CC[C@@H](C2)N3Cc2ccccc2)c1` displayed a pKa (basic group) of 8.9.
The same measure, in the same setting: the result for `CC1CCCN1C` (configuration not stated) reads 10.2.
As to `CSc1ccc(N)c(Cl)c1`, the pKa (basic group) is 2.56.
Molecule `CC1=C[C@H]2CC[C@@H](O)[C@H]2N1C` yielded a pKa (basic group) of 11.7.
Regarding `Cc1cnoc1C`, under “basic group”, the pKa came out at 0.
In turn, `Cc1ccccc1C[N+](=O)[O-]` gave a pKa (acidic group) of 7.6.
For `CCCNC(C)C(=O)[O-]` (configuration not stated), the pKa (basic group) was 10.2.
As to `Cc1c(Br)cccc1C(=O)O`, the pKa (acidic group) worked out at 3.36.
With `Cc1cc(O)c(C(C)C)cc1Nc1ccc(O)cc1`, the pKa (acidic group) was determined as 9.85.
Molecule `O=C(/C=C/c1c[nH]cn1)OCCCl` gave a pKa (basic group) of 4.8.
Molecule `O=C(O)c1cc[n+]([O-])cc1` registered a pKa (acidic group) of 2.86.
On to `Cc1ccc(N)c(C)c1`, for which the pKa (basic group) was 4.75.
As to `COc1ccc(CC(C)N)cc1` (configuration not stated), the pKa (basic group) turned out to be 9.53.
Take `COc1ncc2ccccc2n1`: where the note is “basic group”, the pKa was 1.31.
The molecule `C[NH+]1C[C@@H](C(=O)O)C=C2c3cccc4[nH]cc(c34)C[C@@H]21` returned a pKa (acidic group) of 3.28.
`CONc1cc(=O)n(C)c(=O)n1C` gave a pKa (acidic group) of 10.6.
`C[n+]1cc(O)c2ccccc2c1` yielded a pKa (acidic group) of 4.93.
For the setting “acidic group”, `Cc1n[nH]c(O)c1-c1ccccc1` yielded a pKa of 11.4.
For `Cc1ccc(-c2cnc(-c3ccc(Cl)cc3)o2)cc1`, the pKa (basic group) came to 0.58.
On to `C[n+]1ccc(-c2nc3ccccc3[nH]2)cc1`, for which the pKa reads like this: (acidic group) 8.89; (basic group) 2.26.
In turn, `CCOc1cccc(/N=C/N(C)C)c1` yielded a pKa (basic group) of 8.87.
Take `O=C(O)[c+]1cccccc1`: the pKa (acidic group) was determined as 3.29.
On to `CN1C[C@H](C(=O)[O-])C=C2c3cccc4[nH]cc(c34)C[C@@H]21`, for which the pKa (basic group) is 8.49.
`C[n+]1ccccc1C(C)(O)O` registered a pKa (acidic group) of 10.6.
Where the note is “basic group”, `COc1ccc(N)cc1Br` came in with a pKa of 4.09.
`Cc1cc(-c2ccccn2)nn1C`: where the note is “basic group”, the pKa is 4.52.
On to `O=C(O)C12CC3(F)CC(F)(CC(F)(C3)C1)C2`, for which the pKa (acidic group) was 3.24.
For the molecule `Cc1ccncc1`, the pKa (basic group) turned out to be 6.15.
`C[NH2+]CC(=O)c1ccc(O)cc1` displayed a pKa (acidic group) of 7.7.
`CC1=CC(C)(C)SC(=S)N1` displayed a pKa (acidic group) of 10.9.
Molecule `OCc1cc(-c2ccccc2)nnc1NCCN1CCOCC1` had a pKa (basic group) of 6.99.
As to `Cc1cc(C[NH3+])c(O)c(C[NH3+])c1`, under “acidic group”, the pKa is 7.
For `COc1cc(C)ccc1C(=O)O`, for the setting “acidic group”, the pKa is 4.38.
Take `CCc1ccc(OC)c(C(=O)NC[C@H]2CCC[NH+]2CC)c1O`: for the setting “acidic group”, the pKa was determined as 8.7.
Turning to `Cc1ccc2ccc(O)cc2c1`, the pKa (acidic group) was 9.52.
Under “basic group”, `CCCCN(CCCC)c1ccc([N+](=O)[O-])cc1` yielded a pKa of 1.08.
`COC(=O)c1nc2cc(Cl)ccc2[nH]1` had a pKa (basic group) of 0.3.

For orientation: pKa means the pH at which an ionisable group is half protonated.
